Source: patent publication US20250154123A1, “COOLING COMPOUNDS AND COMPOSITIONS” (V. MANE FILS, priority 2022, published 2025)

Assays:
hTRPM8 ion channel = target: T1, hTRPM8 ion channel (Homo sapiens, UniProt Q7Z2W7); assay: Primary in vitro screening on hTRPM8 (CHO-KJ cells, FLUO-8 calcium fluorometry, relative to icilin); type: cell-based; details: for % activation vs iciline: CHO-KJ cells expressing hTRPM8; for activation on hTRPM8 compared with comparative molecules (Physcool, WS-5, WS-3, l-isopulegol, l-menthol, menthyl lactate): primary screening, Table 1
T1 construct: expressed in transfected cells; host or cells: CHO-KJ cells [sic]
T1 sequence (Q7Z2W7 whole entry): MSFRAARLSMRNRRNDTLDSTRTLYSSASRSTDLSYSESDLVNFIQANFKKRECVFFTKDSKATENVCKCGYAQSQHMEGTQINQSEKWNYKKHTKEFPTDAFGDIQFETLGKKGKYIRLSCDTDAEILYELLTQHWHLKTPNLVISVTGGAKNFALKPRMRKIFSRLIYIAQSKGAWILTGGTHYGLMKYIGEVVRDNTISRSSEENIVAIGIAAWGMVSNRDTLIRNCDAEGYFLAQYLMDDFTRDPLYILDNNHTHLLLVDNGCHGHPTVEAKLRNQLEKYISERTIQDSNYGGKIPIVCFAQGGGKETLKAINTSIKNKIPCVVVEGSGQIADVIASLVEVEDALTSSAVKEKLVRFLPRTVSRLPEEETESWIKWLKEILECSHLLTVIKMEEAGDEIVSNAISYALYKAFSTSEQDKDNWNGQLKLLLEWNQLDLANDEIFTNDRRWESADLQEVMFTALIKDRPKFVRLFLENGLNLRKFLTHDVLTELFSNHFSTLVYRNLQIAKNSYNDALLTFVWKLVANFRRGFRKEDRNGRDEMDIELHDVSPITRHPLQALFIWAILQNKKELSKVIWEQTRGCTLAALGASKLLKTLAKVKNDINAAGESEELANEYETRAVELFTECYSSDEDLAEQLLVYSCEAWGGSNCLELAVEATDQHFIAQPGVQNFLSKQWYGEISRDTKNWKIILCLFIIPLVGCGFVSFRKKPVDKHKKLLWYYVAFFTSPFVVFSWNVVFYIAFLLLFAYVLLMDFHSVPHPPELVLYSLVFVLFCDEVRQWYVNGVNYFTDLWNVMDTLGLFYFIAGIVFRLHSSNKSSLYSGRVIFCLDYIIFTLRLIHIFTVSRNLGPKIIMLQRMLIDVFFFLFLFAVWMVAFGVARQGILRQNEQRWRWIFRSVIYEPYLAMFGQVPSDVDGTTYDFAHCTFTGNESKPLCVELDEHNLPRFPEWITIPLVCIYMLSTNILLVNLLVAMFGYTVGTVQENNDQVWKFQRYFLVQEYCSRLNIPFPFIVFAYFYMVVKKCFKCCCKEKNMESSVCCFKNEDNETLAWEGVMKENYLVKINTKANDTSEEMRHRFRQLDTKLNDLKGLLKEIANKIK
Protocol: (§1) The compounds were evaluated in vitro on CHO-KJ cells expressing the gene encoding the hTRPM8 ion channel (Table 1). Channel activation is determined by fluorometric measurement of […] calcium using FLUO-8. The activity of the compounds was measured relative to icilin (known hTRPM8 agonist).

hTRPM8 [1] = target: T2, hTRPM8 (Homo sapiens, UniProt Q7Z2W7); assay: Secondary in vitro screening on hTRPM8 at 5 μM versus WS-3; type: cell-based; details: WS3 as reference compound
T2 construct: expressed in transfected cells; host or cells: CHO-KJ cells [sic]
T2 sequence (Q7Z2W7 whole entry): as above
Protocol: as §1
The compounds 1 to 40 were tested on hTRPM8 at 5 μM using WS3 as the reference compound (Table 2).

hTRPM8 [2] = target: T2, hTRPM8; assay: EC50 measurement on hTRPM8 (response curve); type: cell-based; details: for EC50: hTRPM8, response curve
Protocol: as §1
A response curve was developed for compounds 1, 3, 5 and 37 which made it possible to determine the EC50 (half maximal effective concentration) values on hTRPM8 and compare them with the EC50 values of the comparative compounds (Table 3).

[3] = Organoleptic evaluation in still water by a trained panel (cooling intensity over time); type: in vivo, human
Description: Inventive compounds 1, 2 and 5 were organoleptically evaluated in still water by a trained panel. […] […] These inventive compounds appear to behave similarly to the comparative compounds.

[4] = Chewing gum evaluation protocol, cooling intensity rated 0-10 by 6 trained panelists over 10 min; type: in vivo, human; details: 0.20 wt % in chewing gum, chewed 10 min, 6 panelists
Protocol: An unflavored chewing gum paste was prepared using the following formulation: Sorbitol (52.4 wt %), gum base (30.0 wt %), maltitol syrup (7.0 wt %), glycerine (5.0 wt %), mannitol (5.0 wt %), soy lecithin (0.4 wt %), acesulfame-K (0.1 wt %), and aspartame (0.1 wt %). The paste was warmed 1-2 min using a micro-wave to soften the mixture. After adding the cooling agent (0.20 wt % Compound 1), the paste was kneaded to homogenise the product. Then the paste is stretched using a sheeter, flatted at 2 mm thick, and cut in regular rectangular pieces (12×42 mm). Chewing-gums pieces are packed in plastic bag and put 1 week at room temperature to let them stabilise. Comparative chewing gum samples (A-C) were also prepared using 0.26 wt % PHYSCOOL™; 0.21 wt % WS-3™; and 0.17 wt % WS-23™, respectively.
A chewing gum evaluation protocol was performed by 6 trained panelists, where the chewing gum was chewed for 10 min while holding the panelist's mouth closed. The cooling intensity was rated from 0 (not perceived) to 10 (very intense) at 5 sec, 15 sec, 30 sec, 45 sec, 1 min, 1.5 min, 2 min, and then every minute until 10 minutes.

% activation vs iciline (hTRPM8 ion channel; concentration 156 μM) [%]	activation at 5 µM (hTRPM8 [1]) [%]	EC50 (hTRPM8 [2]) [µM]	% activation vs iciline (hTRPM8 ion channel; concentration 96 μM) [%]	Structure (SMILES)	activation on hTRPM8 compared with comparative molecules (Physcool, WS-5, WS-3, l-isopulegol, l-menthol, menthyl lactate) (hTRPM8 ion channel)	EC50 on hTRPM8 compared with WS-3 and WS-5 (hTRPM8 [2]; Table 3)	cooling effect versus Physcool ([3]; equimolar, larger panel, over 10 min, FIG. 3)	freshness in the mouth ([3]; still water, trained panel)	duration of cooling intensity in chewing gum, similar to WS-3 (0.21 wt %) and WS-23 (0.17 wt %) [4]	cooling intensity and duration in chewing gum versus Comparative Sample A (0.26 wt % PHYSCOOL) ([4]; average)
199	99	4.6		CC(C)[C@@H]1CC[C@@H](C)CC1(CO)CO [Compound 1, ((2S,5R)-2-isopropyl-5-methylcyclohexane-1,1-diyl)dimethanol]	greater activations than the comparative molecules	EC50 values lower than WS-3™ and similar to WS-5™	persistent cooling effect similar to Physcool® but with a greater intensity	freshness in the mouth with both an attack and a good persistence	long cooling intensity out to 10 minutes	more initial cooling intensity and longer lasting duration than Comparative Sample A
	16	39	176	COc1cc(C2OCC3(CO2)C[C@H](C)CC[C@H]3C(C)C)ccc1O (stereo partly drawn) [Compound 5, 4-((7S,10R)-7-isopropyl-10-methyl-2,4-dioxaspiro[5.5]undecan-3-yl)-2-methoxyphenol]	greater activations than the comparative molecules					
